Source: patent US4737496A, “1,3,4,16b-tetra hydro-2H,10H-indolo[2,1-c]pyrazino-[1,2-a][1,4]benzodiazepines useful as serotonin-2 receptor antagonists” (Ciba-Geigy Corporation, priority 1986, dated 1988)

Experiments:
[1] = molecular target: T1, serotonin-2 receptor (Rattus norvegicus, UniProt P14842); test: biochemical
Procedure: The serotonin-2 receptor (also named 5-hydroxytryptamine-2 or 5HT-2 receptor) binding properties are determined in vitro by measuring the ability of said compounds to inhibit the specific binding of ^3 H-ketanserin, in membrane preparations of frontal/parietal cortex from male Sprague-Dawley rats essentially as described by Battaglia et al. in Life Sciences 33, 2011 (1983). IC50 values, representing the concentration of compound required to displace 50% of ^3 H-ketanserin, are determined by log-logit analysis of the specific binding data.

[2] = molecular target: T1, serotonin-2 receptor; test: in vivo displacement of 3H-spiperone binding in rat brain; set-up: serotonin-2 receptors in rat brain; from tissue; host or cells: rat brain, in vivo; details: ip
Procedure: In vivo, the compounds according to the present application displace the binding of ^3 H-spiperone to serotonin-2 receptors in rat brain. Illustrative of the invention, the compound of example 1 displaces the binding of ^3 H-spiperone with an ED50 value of about 2 mg/Kg i.p.

[3] = molecular target: T1, serotonin-2 receptor; test: 5-hydroxytryptophane-induced head twitch test; assay type: in vivo; set-up: membrane preparations of frontal/parietal cortex from male Sprague-Dawley rats; from tissue; host or cells: frontal/parietal cortex membranes, male Sprague-Dawley rat; details: po, 5-HTP induced head twitch, read-out: effective dose in the head twitch test
Procedure: The head twitch test for assessing central nervous system serotonin-2 receptor antagonism in the rat is described in Neuropharmacology 16, 663 (1977) and in J. Pharmacol. Exp. Ther. 228, 133 (1984). The test is carried out as follows:
Male Wistar rats (120-180 g) are fasted for 18 hours prior to testing but allowed water ad libitum. All animals are pretreated with the peripheral decarboxylase inhibitor alpha-methyl-DOPA hydrazine (carbidopa, 25 mg/kg i.p., 4.0 ml/kg) followed 30 minutes later by 5-hydroxy-tryptophane (5-HTP 100 mg/kg s.c., 4.0 ml/kg). Ninety minutes after receiving 5-HTP, the rats are placed individually in plexiglass observation cages and the frequency of head twitches for each animal is counted over a 10 minute observation period. The test compound or vehicle is administered at either 0.5 hour at 1.0 ml/kg i.p. or at 1, 2 or 4 hours at 10 ml/kg p.o. prior to the observation period. ED50 values are determined by probit analysis.

T1 sequence (P14842 whole entry): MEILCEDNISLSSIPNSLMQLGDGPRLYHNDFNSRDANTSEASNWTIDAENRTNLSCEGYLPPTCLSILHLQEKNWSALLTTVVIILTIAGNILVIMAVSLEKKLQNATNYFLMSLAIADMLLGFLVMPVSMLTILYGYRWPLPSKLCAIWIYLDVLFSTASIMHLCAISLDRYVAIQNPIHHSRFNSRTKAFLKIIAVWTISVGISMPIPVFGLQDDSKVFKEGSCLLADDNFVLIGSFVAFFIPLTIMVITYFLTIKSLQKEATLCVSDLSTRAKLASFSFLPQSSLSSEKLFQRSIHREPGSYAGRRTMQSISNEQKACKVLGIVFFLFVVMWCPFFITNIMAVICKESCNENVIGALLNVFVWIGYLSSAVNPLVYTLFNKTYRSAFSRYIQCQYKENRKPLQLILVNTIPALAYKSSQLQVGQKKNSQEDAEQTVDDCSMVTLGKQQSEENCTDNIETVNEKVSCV

## COC(=O)c1c2n(c3ccccc13)Cc1ccccc1N1CCN(C)CC21 (stereo not drawn) [Example 1, methyl 1,3,4,16b-tetrahydro-2-methyl-2H,10H-indolo[2,1-c]pyrazino[1,2-a][1,4]benzodiazepine-16-carboxylate]
[1]
  IC50: ~4 nM
[2]
  ED50: ~2 mg/kg
[3]
  ED50: ~3 mg/kg
